The test system of data set [1] is Mus musculus. The data set is described as follows: Anticonvulsant activity in maximal electroshock induced seizure mouse model assessed as reduction in convulsions at 100 mg/kg, po. In kind it is functional, organism-based. (In general: In the maximal electroshock model the usual endpoint is tonic extension of the hind limbs.)
Data set [2] concerns Mus musculus. Kind of data set: Anticonvulsant activity in subcutaneous pentylenetetrazole-induced seizure mouse model assessed as reduction in convulsions at 25 mg/kg, po. In kind it is functional, organism-based.
Data set [3] relates to Mus musculus. Kind of data set: Anticonvulsant activity in maximal electroshock induced seizure mouse model assessed as reduction in convulsions at 25 mg/kg, po. In kind it is functional, organism-based.
Data set [4] relates to Mus musculus. The data set is described as follows: Anticonvulsant activity in subcutaneous pentylenetetrazole-induced seizure mouse model assessed as reduction in convulsions at 100 mg/kg, po. In kind it is functional, organism-based.
For data set [5], the system named is Mus musculus. Kind of data set: Anticonvulsant activity in maximal electroshock induced seizure mouse model assessed as reduction in convulsions at 50 mg/kg, po. In kind it is functional, organism-based.
Data set [6] in a line: Neurotoxicity in po dosed mouse by rotarod test. In kind it is toxicity, organism-based. The note with it: in vivo.
For data set [7], the system named is Mus musculus. The data set is described as follows: Anticonvulsant activity in po dosed 6-Hz induced seizure mouse model. In kind it is functional.
Data set [8] has as its system Rattus norvegicus. The data set is described as follows: Anticonvulsant activity in amygdala kindling rat model assessed as change in after discharge threshold at 300 mg/kg, po relative to control. In kind it is functional.
Data set [9] relates to Rattus norvegicus. Kind of data set: Anticonvulsant activity in amygdala kindling rat model assessed as change in after discharge duration at 300 mg/kg, po (reference value: -5.5%). In kind it is functional.
In data set [10] the test system is Rattus norvegicus. Kind of data set: Anticonvulsant activity in amygdala kindling rat model assessed as change in after discharge duration at 600 mg/kg, po (reference value: -5.5%). In kind it is functional.
For data set [11], the system named is Rattus norvegicus. The data set is described as follows: Anticonvulsant activity in amygdala kindling rat model assessed as change in after discharge threshold at 600 mg/kg, po relative to control. In kind it is functional.
Data set [12] concerns Mus musculus. The data set is described as follows: Anticonvulsant activity in po dosed maximal electroshock induced seizure mouse model assessed as reduction in convulsions. In kind it is functional.
Data set [13] deals with Mus musculus. Kind of data set: Anticonvulsant activity in po dosed subcutaneous pentylenetetrazole-induced seizure mouse model assessed as reduction in convulsions. In kind it is functional.
The test system of data set [14] is Mus musculus. The data set is described as follows: Anticonvulsant activity in subcutaneous pentylenetetrazole-induced seizure mouse model assessed as reduction in convulsions at 50 mg/kg, po. In kind it is functional, organism-based.
The nature of data set [15]: Stability in rat hepatic microsomes assessed as parent compound remaining after 30 mins in presence of NADPH. In kind it is ADME, Microsome. The note with it: liver microsomes, read-out: Stability. (Microsomes from liver hold many membrane-bound enzymes, among them those of drug oxidation.)
Data set [16] relates to Rattus norvegicus. The data set is described as follows: Anticonvulsant activity in amygdala kindling rat model assessed as change in after discharge threshold at 50 mg/kg, po relative to control. In kind it is functional.
The subject of data set [17] is Rattus norvegicus. Kind of data set: Anticonvulsant activity in amygdala kindling rat model assessed as change in after discharge duration at 100 mg/kg, po (reference value: -5.5%). In kind it is functional.
The target of data set [18] is T1, GABA-A receptor; anion channel (Homo sapiens) (UniProt P14867+P47870+P18507+P28472+P48169+Q99928+Q9UN88+P34903+O00591+O14764+Q8N1C3+P18505+P78334+P47869+P31644+Q16445). Kind of data set: Displacement of [3H]TBOB from GABAA receptor (unknown origin) at 30 uM. In kind it is protein-complex assay. Background: Displacement assays read how much labelled ligand stays bound in the presence of the test substance.

A short description of data set [19]: Therapeutic index, ratio of TD50 for neurotoxicity in po dosed mouse to ED50 for po dosed maximal electroshock induced seizure mouse model. In kind it is toxicity, organism-based. The note with it: in vivo, read-out: Ratio TD50/ED50.
Data set [20] concerns the target T2, GABA-A receptor; anion channel (Rattus norvegicus) (UniProt O09028+P15431+P18506+P18508+P19969+P20236+P23574+P23576+P28471+P28473+P30191+P62813+P63079+P63138+Q91ZM7+Q9ES14). The data set is described as follows: Displacement of [3H]flunitrazepam from GABAA receptor in Sprague-Dawley rat cerebral cortex at 30 uM after 60 mins by scintillation counting method.

Data set [21] deals with T2, GABA-A receptor; anion channel (Rattus norvegicus). The data set is described as follows: Displacement of […] from GABAA receptor in Sprague-Dawley rat cerebral cortex at 30 uM by scintillation counting method.
The subject of data set [22] is Rattus norvegicus. The data set is described as follows: Anticonvulsant activity in amygdala kindling rat model assessed as change in after discharge threshold at 100 mg/kg, po relative to control. In kind it is functional.
Data set [23] has as its target T1, GABA-A receptor; anion channel (Homo sapiens). Kind of data set: Displacement of [3H]muscimol from GABAA receptor (unknown origin) at 30 uM. In kind it is protein-complex assay.
Data set [24] has as its system Rattus norvegicus. Kind of data set: Anticonvulsant activity in amygdala kindling rat model assessed as change in after discharge duration at 50 mg/kg, po (reference value: -5.5%). In kind it is functional.
The nature of data set [25]: Therapeutic index, ratio of TD50 for neurotoxicity in po dosed mouse to ED50 for po dosed 6-Hz induced seizure mouse model. In kind it is toxicity, organism-based. As to conditions: in vivo, read-out: Ratio TD50/ED50.
A short description of data set [26]: Stability in human hepatic microsomes assessed as parent compound remaining after 30 mins in presence of NADPH. In kind it is ADME, Microsome. As to conditions: liver microsomes, read-out: Stability.
Data set [27] concerns the target T1, GABA-A receptor; anion channel (Homo sapiens). The data set is described as follows: Displacement of [3H]Ro15-1788 from GABAA receptor (unknown origin) at 30 uM. In kind it is protein-complex assay.

In general, TD50 refers to the 50% point of the dose-response relation for the toxic effect studied. Low readings indicate harm at a small dose, high ones harm only at a large dose. A word on the ED50: it is the midpoint of the dose-response relation.

Active and inactive are the calls of the source.

With `NC(=O)Cc1cc(F)ccc1-c1ccccc1F`, the result with Mus musculus [1] and with Mus musculus [4] was Active. Further, the result in the data set on Mus musculus [2] and in the data set with Mus musculus [3] was inactive.

`COc1ccccc1-c1ccccc1CC(N)=O`: in the data set on Mus musculus [5], the outcome was inactive.

With `NC(=O)Cc1c(F)cccc1-c1ccccc1F`, the result in the data set with Mus musculus [1] and with Mus musculus [5] was Active.

Take `NC(=O)Cc1cccc(F)c1-c1ccccc1F`: the outcome with Mus musculus [1] and with Mus musculus [5] was Active. Also, the outcome in the data set with Mus musculus [2] was inactive.

Take `NC(=O)Cc1ncccc1-c1ccccc1F`: in the data set on Mus musculus [1], the outcome was Active.

On to `NC(=O)c1ccccc1-c1ccccc1F`, for which the result in the data set on Mus musculus [1], with Mus musculus [3] and with Mus musculus [5] was Active.

Compound `CCCC(CCC)C(=O)[O-].[Na+]` [VALPROATE SODIUM] showed a TD50 in data set [6] of 396 mg/kg. The results for the ED50 in the data set on Mus musculus [7], with Mus musculus [12] and in the data set on Mus musculus [13] were 343 mg/kg, 309 mg/kg and 336 mg/kg, respectively. The Activity was -5.4% in the data set with Rattus norvegicus [8], 11.1% with Rattus norvegicus [9], -22.5% in the data set on Rattus norvegicus [10] and 81.3% in the data set with Rattus norvegicus [11].

`NC(=O)Cc1ccccc1-c1ccncc1F`: the outcome in the data set with Mus musculus [1] was inactive.

In the case of `NC(=O)Cc1cnccc1-c1ccccc1F`, the outcome in the data set with Mus musculus [1] and with Mus musculus [4] was inactive.

Turning to `N#Cc1ccccc1-c1ccccc1CC(N)=O`, the result with Mus musculus [4] was inactive.

For the compound `O=C1CCCN1c1ccccc1-c1ccccc1F`, in the data set on Mus musculus [1], the result was Active. Also, the outcome in the data set with Mus musculus [4] was inactive.

As for `NC(=O)Cc1ccccc1-c1ccccc1Cl`, the outcome in the data set on Mus musculus [14], with Mus musculus [1], in the data set on Mus musculus [4] and in the data set with Mus musculus [5] was Active. In the data set on Mus musculus [2], the result was inactive.

For `NC(=O)Cc1ccccc1-c1ccccc1F`, the remaining at 0.5 h in data set [15] and in data set [26] was above 95% throughout. The Activity with Rattus norvegicus [16] was 75.9%; in the data set with Rattus norvegicus [17] it was -22.9%; in the data set with Rattus norvegicus [22], 80.1%; with Rattus norvegicus [24], -22.9%. Moreover, the outcome in the data set with Mus musculus [1] and with Mus musculus [5] was Active. Also, the inhibition entry in data set [18], in [20], in data set [21], in data set [23] and in [27] was “inactive” throughout. Moreover, the TD50 in data set [6] worked out at 129 mg/kg. The ED50 stood at 56 mg/kg with Mus musculus [7], 27 mg/kg in the data set with Mus musculus [12] and 27 mg/kg in the data set on Mus musculus [13]. For the same compound, the selectivity ratio in [19] came to 4.8; in data set [25], 2.3.

In the case of `O=C1NC(=O)C(c2ccccc2-c2ccccc2F)N1` (centres undefined), the result in the data set on Mus musculus [1] was Active. Moreover, in the data set with Mus musculus [4], the result was inactive.

Consider `NC(=O)Cc1cccnc1-c1ccccc1F`, for which the outcome in the data set with Mus musculus [1] was inactive.

For `NC(=O)Cc1ccccc1-c1cc(F)ccc1F`, the result with Mus musculus [1], in the data set on Mus musculus [4] and in the data set on Mus musculus [5] was Active. Moreover, the result in the data set with Mus musculus [2] and with Mus musculus [3] was inactive.

In the case of `O=C(O)Cc1ccccc1-c1ccccc1F`, the result with Mus musculus [1] and in the data set on Mus musculus [4] was inactive.

As for `NC(=O)Cc1ccc(F)cc1-c1ccccc1F`, the outcome with Mus musculus [1] and with Mus musculus [5] was Active. In addition, the result in the data set on Mus musculus [3] was inactive.

Regarding `NC(=O)Cc1ccccc1-c1ccccc1C(F)(F)F`, the result with Mus musculus [14] and with Mus musculus [5] was inactive. Also, the result in the data set on Mus musculus [1] was Active.

In the case of `CNS(=O)(=O)c1ccccc1-c1ccccc1F`, the outcome in the data set on Mus musculus [14], in the data set with Mus musculus [1], in the data set on Mus musculus [3], in the data set on Mus musculus [4] and with Mus musculus [5] was Active.

For the compound `NC(=O)Cc1ccccc1-c1ccc(F)cc1F`, the outcome in the data set with Mus musculus [1] was Active.

Take `NC(=O)Cc1ccccc1-c1c(F)cccc1F`: the result in the data set on Mus musculus [1], in the data set with Mus musculus [3], in the data set on Mus musculus [4] and in the data set on Mus musculus [5] was Active. In the data set with Mus musculus [2], the result was inactive.

These data come from ChEMBL document CHEMBL4371063, “Identification of 2-(2'-fluoro-[1,1'-biphenyl]-2-yl)acetamide as a Sodium Valproate-like broad spectrum anti-epileptic drug candidate” (Bioorg Med Chem Lett, 2019).
